Read-outs that look alike come from different tables or passages of the source.
What was measured:
RIPK1 = RIPK1 (Homo sapiens (Human), UniProt Q13546); experiment: RIPK1 ADP-Glo biochemical kinase assay
Experimental: The final reaction volume was 5.0ul.
Adding 5 μl of ADP-Glo™ terminated the reaction.

L929 cells = experiment: L929 cell necroptosis assay (TNFa + zVAD, CellTiter-Glo); type: cell-based, murine
Method in brief: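 Murine L929 cells, plated 18 h beforehand at 10K cells/well in RPMI 1640 with 10% FBS, were switched to medium containing 40 uM zVAD-fmk and given compound from 4-fold serial dilutions. Viability after 18 h of TNFa stimulation at 37° C was read by CellTiter-Glo luminescence.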

U937 cells = experiment: U937 cell necroptosis assay (TNFa + zVAD, CellTiter-Glo); type: cell-based, human
Method in brief: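 Human U937 and murine L929 cells in RPMI 1640/10% FBS were pre-incubated 1 h at 37 °C with serially diluted compound plus zVAD-fmk (U937 plated with 60 uM, L929 medium with 40 uM), then stimulated with 2 ng/mL TNFa (final). Viability read by CellTiter-Glo luminescence after 18 h.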

[1] = read-out: RIPK1 ADP-Glo Kinase (IC50)
[2] = Mus musculus, L929, L929 cells, TNFa + zVAD, read-out: L929-CTG-recovery, L929, TNFa + zVAD (IC50)
[3] = Homo sapiens, U-937, U937 cells, TNFa + zVAD, read-out: U937 Zvad TNF CTG Recovery, U937, TNFa + zVAD (IC50)
[4] = Mus musculus, L929, read-out: L929-CTG-recovery, L929, TNFa + zVAD (IC50), L929 cells, TNFa + zVAD
[5] = Homo sapiens, U-937, read-out: U937 Zvad TNF CTG Recovery, U937, TNFa + zVAD (IC50), U937 cells, TNFa + zVAD
[6] = L929 cells, TNFa + zVAD, read-out: L929-CTG-recovery, L929, TNFa + zVAD (IC50)

RIPK1, sequence (Q13546 whole entry, species assumed): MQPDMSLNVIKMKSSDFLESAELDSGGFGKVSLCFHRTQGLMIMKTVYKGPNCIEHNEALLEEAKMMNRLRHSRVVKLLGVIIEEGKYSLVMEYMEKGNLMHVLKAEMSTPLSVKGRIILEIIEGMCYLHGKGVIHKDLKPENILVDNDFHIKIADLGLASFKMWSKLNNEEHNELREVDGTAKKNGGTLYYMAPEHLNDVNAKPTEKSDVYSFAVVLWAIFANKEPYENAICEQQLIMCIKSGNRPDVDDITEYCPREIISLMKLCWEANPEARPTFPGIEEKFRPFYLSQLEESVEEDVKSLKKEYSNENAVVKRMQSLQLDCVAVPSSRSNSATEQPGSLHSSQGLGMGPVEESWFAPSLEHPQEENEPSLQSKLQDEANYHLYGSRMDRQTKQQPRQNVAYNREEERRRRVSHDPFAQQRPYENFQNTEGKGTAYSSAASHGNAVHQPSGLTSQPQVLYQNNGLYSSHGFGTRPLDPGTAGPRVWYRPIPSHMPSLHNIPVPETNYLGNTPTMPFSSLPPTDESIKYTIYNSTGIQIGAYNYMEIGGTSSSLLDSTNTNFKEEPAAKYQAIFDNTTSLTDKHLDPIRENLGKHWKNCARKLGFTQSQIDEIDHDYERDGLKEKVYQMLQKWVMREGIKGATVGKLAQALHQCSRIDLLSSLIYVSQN

Row | Structure (SMILES) | IC50 (RIPK1; [1]) [nM] | IC50 (L929 cells; [2]) [nM] | IC50 (U937 cells; [3]) [nM] | IC50 (L929 cells; [4]) [nM] | IC50 (U937 cells; [5]) [nM] | IC50 (L929 cells; [6]) [nM] | IC50 (U937 cells; U937 cells, TNFa + zVAD, read-out: U937 Zvad TNF CTG Recovery, U937, TNFa + zVAD (IC50)) [nM] | IC50 (RIPK1) [nM]
1 | CN1C(=O)[C@@H](NC(=O)c2cc(Oc3ccccc3)ccn2)COc2ccc(C#CC3(O)CCN(C(=O)c4cc(Oc5ccccc5)ccn4)CC3)cc21 [Compound I-131, (S)—N-(7-((4-hydroxy-1-(4-phenoxypicolinoyl)piperidin-4-yl)ethynyl)-5-methyl-4-oxo-2,3,4,5-tetrahydrobenzo[b][1,4]oxazepin-3-yl)-4-phenoxypicolinamide] | 446 | 65.8 | 3.7 |  |  |  |  | 
2 | CN1C(=O)[C@@H](NC(=O)c2cc(Oc3ccccc3)ccn2)COc2ccc(C#CC3(O)CCNCC3)cc21 [Compound I-132, (S)—N-(7-((4-hydroxypiperidin-4-yl)ethynyl)-5-methyl-4-oxo-2,3,4,5-tetrahydrobenzo[b][1,4]oxazepin-3-yl)-4-phenoxypicolinamide] | 30.5 | 4600 | 35.9 |  |  |  |  | 
3 | CC(=O)N1CCC(O)(C#Cc2ccc3c(c2)N(C)C(=O)[C@@H](NC(=O)c2cc(Oc4ccc(F)cc4)ccn2)CO3)CC1 [Compound I-134, (S)—N-(7-((l-acetyl-4-hydroxypiperidin-4-yl)ethynyl)-5-methyl-4-oxo-2,3,4,5-tetrahydrobenzo[b][1,4]oxazepin-3-yl)-4-(4-fluorophenoxy)picolinamide] | 52.8 | 608 | 27.4 |  |  |  |  | 
4 | CN1CCC(O)(C#Cc2ccc3c(c2)N(C)C(=O)[C@@H](NC(=O)c2cc(Oc4ccc(F)cc4)ccn2)CO3)CC1 [Compound I-135, (S)-4-(4-fluorophenoxy)-N-(7-((4-hydroxy-1-methylpiperidin-4-yl)ethynyl)-5-methyl-4-oxo-2,3,4,5-tetrahydrobenzo[b][1,4]oxazepin-3-yl)picolinamide] | 111 | 2630 | 224 |  |  |  |  | 
5 | CN1C(=O)[C@@H](NC(=O)c2cc(Oc3ccccc3)ccn2)COc2ccc(C#CC3(O)CNC3)cc21 [Compound I-136, (S)—N-(7-((3-hydroxyazetidin-3-yl)ethynyl)-5-methyl-4-oxo-2,3,4,5-tetrahydrobenzo[b][1,4]oxazepin-3-yl)-4-phenoxypicolinamide] | 26.7 | 4970 | 15.2 |  |  |  |  | 
6 | CN1CC(O)(C#Cc2ccc3c(c2)N(C)C(=O)[C@@H](NC(=O)c2cc(Oc4ccccc4)ccn2)CO3)C1 [Compound I-137, (S)—N-(7-((3-hydroxy-1-methylazetidin-3-yl)ethynyl)-5-methyl-4-oxo-2,3,4,5-tetrahydrobenzo[b][1,4]oxazepin-3-yl)-4-phenoxypicolinamide] | 23.6 |  |  | 333 | 5 |  |  | 
7 | C=C(C#Cc1ccc2c(c1)N(C)C(=O)[C@@H](NC(=O)c1cc(Oc3ccc(F)cc3)ccn1)CO2)CCNC [Compound I-138, (S)-4-(4-fluorophenoxy)-N-(5-methyl-7-(5-(methylamino)-3-methylenepent-1-yn-1-yl)-4-oxo-2,3,4,5-tetrahydrobenzo[b][1,4]oxazepin-3-yl)picolinamide] | 76.9 | 3150 | 122 |  |  |  |  | 
8 | CN1C(=O)[C@@H](NC(=O)c2cc(Oc3ccccc3)ccn2)COc2ccc(C#CC(C)(C)CN3CCOCC3)cc21 [Compound I-140, (S)—N-(7-(3,3-dimethyl-4-morpholinobut-1-yn-1-yl)-5-methyl-4-oxo-2,3,4,5-tetrahydrobenzo[b][1,4]oxazepin-3-yl)-4-phenoxypicolinamide] | 124 | 109 | 4.6 |  |  |  |  | 
9 | C[C@H](NC(=O)OC(C)(C)C)C(=O)OCC(C)(C)C#Cc1ccc2c(c1)N(C)C(=O)[C@@H](NC(=O)c1cc(Oc3ccccc3)ccn1)CO2 [Compound I-141, tert-butyl ((S)-1-((2,2-dimethyl-4-((S)-5-methyl-4-oxo-3-(4-phenoxypicolinamido)-2,3,4,5-tetrahydrobenzo[b][1,4]oxazepin-7-yl)but-3-yn-1-yl)oxy)-1-oxopropan-2-yl)-12-azanecarboxylate] | 414 |  |  |  |  | 120 | 2.2 | 
10 | C[C@H](N)C(=O)OCC(C)(C)C#Cc1ccc2c(c1)N(C)C(=O)[C@@H](NC(=O)c1cc(Oc3ccccc3)ccn1)CO2 [Compound I-142, 2,2-dimethyl-4-((S)-5-methyl-4-oxo-3-(4-phenoxypicolinamido)-2,3,4,5-tetrahydrobenzo[b][1,4]oxazepin-7-yl)but-3-yn-1-yl L-alaninate] | 24.2 | 77.3 | 1.4 |  |  |  |  | 
11 | CN1C(=O)[C@@H](NC(=O)c2cc(Oc3ccccc3)ccn2)COc2ccc(C#CC(C)(C)COC(=O)CCC(=O)O)cc21 [Compound I-144, (S)-4-((2,2-dimethyl-4-(5-methyl-4-oxo-3-(4-phenoxypicolinamido)-2,3,4,5-tetrahydrobenzo[b][1,4]oxazepin-7-yl)but-3-yn-1-yl)oxy)-4-oxobutanoic acid] | 22 | 156 | 1.2 |  |  |  |  | 
12 | CC(=O)O[C@@H](C(=O)O)[C@@H](OC(C)=O)C(=O)OCC(C)(C)C#Cc1ccc2c(c1)N(C)C(=O)[C@@H](NC(=O)c1cc(Oc3ccccc3)ccn1)CO2 [Compound I-145, (2R,3R)-2,3-diacetoxy-4-((2,2-dimethyl-4-((S)-5-methyl-4-oxo-3-(4-phenoxypicolinamido)-2,3,4,5-tetrahydrobenzo[b][1,4]oxazepin-7-yl)but-3-yn-1-yl)oxy)-4-oxobutanoic acid] | 27.5 | 3050 | 8.6 |  |  |  |  | 
13 | CN1CC(F)(C#Cc2ccc3c(c2)N(C)C(=O)[C@@H](NC(=O)c2cc(Oc4ccccc4)ccn2)CO3)C1 [Compound I-146] | 17.3 |  |  | 18.3 | 0.4 |  |  | 
14 | CN1C(=O)[C@@H](NC(=O)c2cc(Oc3ccccc3)ccn2)COc2ccc(C#CC3(OC(=O)CCC(=O)O)COC3)cc21 [Compound I-147, (S)-4-((3-((5-methyl-4-oxo-3-(4-phenoxypicolinamido)-2,3,4,5-tetrahydrobenzo[b][1,4]oxazepin-7-yl)ethynyl)oxetan-3-yl)oxy)-4-oxobutanoic acid] | 17.3 |  | 1.2 |  |  | 154 |  | 
15 | CN1C(=O)[C@@H](NC(=O)c2cc(Oc3ccc(F)cc3)ccn2)COc2ccc(C#CC(C)(C)CO)cc21 [Compound I-148, (S)-4-(4-fluorophenoxy)-N-(7-(4-hydroxy-3,3-dimethylbut-1-yn-1-yl)-5-methyl-4-oxo-2,3,4,5-tetrahydrobenzo[b][1,4]oxazepin-3-yl)picolinamide] | 33.7 | 359 | 5.2 |  |  |  |  | 
16 | CN1C(=O)[C@@H](NC(=O)c2cc(Oc3ccccc3)ccn2)COc2ccc(CN3CCC4(CCOCC4)CC3)cc21 [Compound I-149, (S)—N-(7-((3-oxa-9-azaspiro[5.5]undecan-9-yl)methyl)-5-methyl-4-oxo-2,3,4,5-tetrahydrobenzo[b][1,4]oxazepin-3-yl)-4-phenoxypicolinamide] |  | 11600 | 30 |  |  |  |  | 39.6
17 | CN1C(=O)[C@@H](NC(=O)c2cc(Oc3ccccc3)ccn2)COc2ccc(C#CC3(O)CN(C(=O)C(F)(F)F)C3)cc21 [Compound I-151, (S)—N-(7-((3-hydroxy-1-(2,2,2-trifluoroacetyl)azetidin-3-yl)ethynyl)-5-methyl-4-oxo-2,3,4,5-tetrahydrobenzo[b][1,4]oxazepin-3-yl)-4-phenoxypicolinamide] | 55.4 |  |  | 1080 | 17 |  |  | 
18 | CN1C(=O)[C@@H](NC(=O)c2cc(OC3CCC3)ccn2)COc2ccc(C#CC(C)(C)O)cc21 [Compound I-152, (S)-4-cyclobutoxy-N-(7-(3-hydroxy-3-methylbut-1-yn-1-yl)-5-methyl-4-oxo-2,3,4,5-tetrahydrobenzo[b][1,4]oxazepin-3-yl)picolinamide] | 10.3 | 2510 | 39.1 |  |  |  |  | 
19 | CN1C(=O)[C@@H](NC(=O)c2cc(OC3CCC3)ccn2)COc2ccc(C#CC3(O)COC3)cc21 [Compound I-153, (S)-4-cyclobutoxy-N-(7-((3-hydroxyoxetan-3-yl)ethynyl)-5-methyl-4-oxo-2,3,4,5-tetrahydrobenzo[b][1,4]oxazepin-3-yl)picolinamide] | 32.6 | 1240 | 16.1 |  |  |  |  | 
20 | COC1(C#Cc2ccc3c(c2)N(C)C(=O)[C@@H](NC(=O)c2cc(Oc4ccccc4)ccn2)CO3)CNC1 [Compound I-154, (S)—N-(7-((3-methoxyazetidin-3-yl)ethynyl)-5-methyl-4-oxo-2,3,4,5-tetrahydrobenzo[b][1,4]oxazepin-3-yl)-4-phenoxypicolinamide] | 26.7 | 656 | 3.5 |  |  |  |  | 
21 | CN1C(=O)[C@@H](NC(=O)c2cc(OC3CCCC3)ccn2)COc2ccc(C#CC(C)(C)O)cc21 [Compound I-156, (S)-4-(cyclopentyloxy)-N-(7-(3-hydroxy-3-methylbut-1-yn-1-yl)-5-methyl-4-oxo-2,3,4,5-tetrahydrobenzo[b][1,4]oxazepin-3-yl)picolinamide] | 27.3 | 10300 | 55.4 |  |  |  |  | 

— US11407736B2 (priority 2019, dated 2022)
